From ChEMBL document CHEMBL1201862, “PubChem BioAssay data set” (2004)
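Each compound was tested at five concentrations against cells in 96-well plates for 48 hours. The concentration for 50% growth inhibition is given as GI50.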 Activity calls are given as the source filed them. No stated cut-off is given here; in the data, active = GI50 up to about 1.1 µM and inactive = higher.

Tests used:
Assay in all cases: growth of human tumour cells (NCI), 48 h
[1] = system: CAKI-1
[2] = system: DLD-1
[3] = system: HCC 2998
[4] = system: HCT-15
[5] = system: HOP-62
[6] = system: K562
[7] = system: KM-20L2
[8] = system: KM12
[9] = system: M14
[10] = system: MOLT-4
[11] = system: RPMI-8226
[12] = system: SF-539
[13] = system: SK-OV-3
[14] = system: SR
[15] = system: UO-31
[16] = system: NCI-H226
[17] = system: UACC-257
[18] = system: MCF7
[19] = system: MDA-MB-435
[20] = system: NCI/ADR-RES

In the case of `NC1=NS(=O)(=O)Nc2nc(-c3ccc([N+](=O)[O-])o3)[nH]c21`, the GI50 [1] is reported as 21.3 µM (inactive), the GI50 [2] is reported as 15.8 µM (inactive) and the GI50 [3] is reported as 16.8 µM (inactive). The GI50 [4] was 19.9 µM, the GI50 [5] was 18.5 µM (inactive) and the GI50 [6] was 5.38 µM (inactive). The GI50 [7] was 23.1 µM (inactive), the GI50 [8] was 18.6 µM (inactive) and the GI50 [9] was 14.9 µM (inactive). For the same molecule, the GI50 [10] was 9.62 µM (inactive), the GI50 [11] was 10.7 µM (inactive) and the GI50 [12] was 17.3 µM (inactive). The GI50 [13] was > 10 µM (inactive), the GI50 [14] was 4.73 µM (inactive) and the GI50 [15] was 16.2 µM (inactive).
`O=c1cc(-c2ccccc2)oc2cc(OCCCOc3ccc4c(=O)cc(-c5ccccc5)oc4c3)ccc12` was tested, and the GI50 [1] was > 100 µM (inactive), the GI50 [2] was > 100 µM (inactive) and the GI50 [3] was > 100 µM (inactive). The GI50 [4] was > 100 µM, the GI50 [5] was > 100 µM (inactive) and the GI50 [6] was > 100 µM (inactive). The GI50 [7] was > 100 µM (inactive), the GI50 [8] was > 100 µM (inactive) and the GI50 [9] was > 100 µM (inactive). For the same molecule, the GI50 [10] was > 100 µM (inactive), the GI50 [16] was > 100 µM (inactive) and the GI50 [11] was > 100 µM (inactive). For the same molecule, the GI50 [12] was > 100 µM (inactive), the GI50 [13] was > 100 µM (inactive) and the GI50 [14] was > 100 µM (inactive). For the same molecule, the GI50 [17] was > 100 µM (inactive).
`CC(=O)/C=C\C(=O)NNS(=O)(=O)c1ccc(C)cc1` was tested, and the GI50 [1] was > 100 µM (inactive), the GI50 [2] was > 100 µM (inactive) and the GI50 [3] was > 100 µM (inactive). The GI50 [4] was > 100 µM, the GI50 [5] was > 100 µM (inactive) and the GI50 [6] was > 100 µM (inactive). The GI50 [7] was > 100 µM (inactive), the GI50 [8] was > 100 µM (inactive) and the GI50 [9] was > 100 µM (inactive). The GI50 [10] was > 100 µM (inactive), the GI50 [16] was > 100 µM (inactive) and the GI50 [11] was > 100 µM (inactive). The GI50 [12] was > 100 µM (inactive), the GI50 [13] was > 100 µM (inactive) and the GI50 [14] was > 100 µM (inactive). The GI50 [17] was > 100 µM (inactive) and the GI50 [15] was > 100 µM (inactive).
In the case of `C=C1C(OC(C)=O)CC(OC(C)=O)C2(C)C(OC(C)=O)C(OC(C)=O)C3=C(C)C(OC(=O)/C=C/c4ccccc4)CC(C(OC(C)=O)C12)C3(C)C` (stereo unspecified), the GI50 [1] is reported as 33.1 µM (inactive), the GI50 [2] is reported as > 100 µM (inactive) and the GI50 [3] is reported as > 100 µM (inactive). For the same molecule, the GI50 [4] was > 100 µM, the GI50 [5] was 31 µM (inactive) and the GI50 [6] was > 100 µM (inactive). For the same molecule, the GI50 [7] was > 100 µM (inactive), the GI50 [8] was > 100 µM (inactive) and the GI50 [9] was > 100 µM (inactive). The GI50 [10] was > 100 µM (inactive), the GI50 [16] was 67.3 µM (inactive) and the GI50 [11] was > 100 µM (inactive). For the same molecule, the GI50 [12] was 25.5 µM (inactive), the GI50 [13] was 30.5 µM (inactive) and the GI50 [14] was > 100 µM (inactive). The GI50 [17] was > 100 µM (inactive) and the GI50 [15] was > 100 µM (inactive).
In the case of `CCC/C(=N\NC(=O)c1cc2ccccc2cc1O)C(CC)C(=O)CCC(=O)N(Cc1ccccc1)Cc1ccccc1` (stereo unspecified), the GI50 [1] is reported as 46 µM (inactive), the GI50 [2] is reported as 58.1 µM (inactive) and the GI50 [3] is reported as 67.5 µM (inactive). For the same molecule, the GI50 [4] was 38.4 µM, the GI50 [5] was 81.1 µM (inactive) and the GI50 [6] was 26.2 µM (inactive). The GI50 [7] was 43 µM (inactive), the GI50 [8] was 96.6 µM (inactive) and the GI50 [9] was 32.7 µM (inactive). For the same molecule, the GI50 [10] was 30.7 µM (inactive), the GI50 [16] was 47.3 µM (inactive) and the GI50 [11] was 45.8 µM (inactive). The GI50 [12] was 48.1 µM (inactive), the GI50 [13] was > 100 µM (inactive) and the GI50 [14] was 31 µM (inactive). For the same molecule, the GI50 [17] was 36.1 µM (inactive) and the GI50 [15] was 54 µM (inactive).
For `COc1cc(OC)c([C@@H]2OC(=O)C3C2C(=O)O[C@H]3c2cc(OC)c(OC)cc2OC)cc1OC` (stereo partly specified), the GI50 [1] was > 100 µM (inactive), the GI50 [2] was > 100 µM (inactive) and the GI50 [3] was > 100 µM (inactive). The GI50 [4] was > 100 µM, the GI50 [5] was > 100 µM (inactive) and the GI50 [6] was > 100 µM (inactive). The GI50 [7] was > 100 µM (inactive), the GI50 [8] was > 100 µM (inactive) and the GI50 [9] was > 100 µM (inactive). The GI50 [10] was > 100 µM (inactive), the GI50 [11] was > 100 µM (inactive) and the GI50 [12] was > 100 µM (inactive). The GI50 [13] was > 100 µM (inactive), the GI50 [14] was 51.6 µM (inactive) and the GI50 [17] was > 100 µM (inactive). The GI50 [15] was > 100 µM (inactive).
With `CCCC/C(C)=N/NC(N)=S` the GI50 [1] was > 100 µM (inactive), the GI50 [2] was > 100 µM (inactive) and the GI50 [3] was > 100 µM (inactive). The GI50 [4] was > 100 µM, the GI50 [5] was > 100 µM (inactive) and the GI50 [6] was > 100 µM (inactive). The GI50 [7] was > 100 µM (inactive), the GI50 [8] was > 100 µM (inactive) and the GI50 [9] was > 100 µM (inactive). The GI50 [10] was > 100 µM (inactive), the GI50 [16] was > 100 µM (inactive) and the GI50 [11] was > 100 µM (inactive). For the same molecule, the GI50 [12] was > 100 µM (inactive), the GI50 [13] was > 100 µM (inactive) and the GI50 [14] was > 100 µM (inactive). For the same molecule, the GI50 [17] was > 100 µM (inactive) and the GI50 [15] was > 100 µM (inactive).
In the case of `CN(C)CCCNc1ccc2nnn3c4ccc([N+](=O)[O-])cc4c(=O)c1c23`, the GI50 [1] is reported as 1.73 µM (inactive), the GI50 [2] is reported as 0.931 µM (active) and the GI50 [3] is reported as 2.23 µM (inactive). The GI50 [4] was 0.916 µM, the GI50 [5] was 0.817 µM (active) and the GI50 [6] was 0.589 µM (active). The GI50 [7] was 0.745 µM (active), the GI50 [8] was 0.986 µM (active) and the GI50 [9] was 2.14 µM (inactive). For the same molecule, the GI50 [18] was 1.74 µM (inactive), the GI50 [19] was 1.49 µM (inactive) and the GI50 [10] was 0.21 µM (active). For the same molecule, the GI50 [16] was 0.403 µM (active), the GI50 [20] was 0.685 µM (active) and the GI50 [11] was 0.946 µM (active). The GI50 [12] was 2.13 µM (inactive), the GI50 [13] was 1.79 µM (inactive) and the GI50 [14] was 0.617 µM (active). For the same molecule, the GI50 [17] was 3.4 µM (inactive) and the GI50 [15] was 1.28 µM (inactive).
For `CC1(C)OC(=O)C(c2ccsc2)C(=O)O1`, the GI50 [1] was > 100 µM (inactive), the GI50 [2] was > 100 µM (inactive) and the GI50 [3] was > 100 µM (inactive). The GI50 [4] was > 100 µM, the GI50 [5] was > 100 µM (inactive) and the GI50 [6] was > 100 µM (inactive). The GI50 [7] was > 100 µM (inactive), the GI50 [8] was > 100 µM (inactive) and the GI50 [9] was > 100 µM (inactive). The GI50 [10] was > 100 µM (inactive), the GI50 [16] was > 100 µM (inactive) and the GI50 [11] was > 100 µM (inactive). For the same molecule, the GI50 [12] was > 100 µM (inactive), the GI50 [13] was > 100 µM (inactive) and the GI50 [14] was > 100 µM (inactive). The GI50 [17] was > 100 µM (inactive) and the GI50 [15] was > 100 µM (inactive).
For `Cc1cccc(-n2c(=S)[nH]c3c(sc(=O)n3-c3ccccc3C)c2=O)c1`, the GI50 [1] was > 100 µM (inactive), the GI50 [2] was > 100 µM (inactive) and the GI50 [3] was > 100 µM (inactive). For the same molecule, the GI50 [4] was > 100 µM, the GI50 [5] was > 100 µM (inactive) and the GI50 [6] was > 100 µM (inactive). The GI50 [7] was > 100 µM (inactive), the GI50 [8] was > 100 µM (inactive) and the GI50 [9] was > 100 µM (inactive). The GI50 [10] was > 100 µM (inactive), the GI50 [16] was > 100 µM (inactive) and the GI50 [11] was > 100 µM (inactive). For the same molecule, the GI50 [12] was > 100 µM (inactive), the GI50 [13] was > 100 µM (inactive) and the GI50 [14] was > 100 µM (inactive). The GI50 [17] was > 100 µM (inactive) and the GI50 [15] was > 100 µM (inactive).
With `C=C1C(=O)OC2/C=C(\C)CC(O)/C=C(/CO)CC(OC(=O)/C(C)=C/C)C12` (stereo unspecified) the GI50 [1] was 34.8 µM (inactive), the GI50 [2] was 26.8 µM (inactive) and the GI50 [3] was 42.7 µM (inactive). The GI50 [4] was 38.4 µM, the GI50 [5] was 95.3 µM (inactive) and the GI50 [6] was 18 µM (inactive). For the same molecule, the GI50 [7] was 71.1 µM (inactive), the GI50 [8] was 45 µM (inactive) and the GI50 [18] was 21.7 µM (inactive). For the same molecule, the GI50 [10] was 18.2 µM (inactive), the GI50 [16] was 30 µM (inactive) and the GI50 [20] was 130 µM (inactive). For the same molecule, the GI50 [11] was 7.1 µM (inactive), the GI50 [12] was 29 µM (inactive) and the GI50 [13] was 158 µM (inactive). For the same molecule, the GI50 [17] was 45.6 µM (inactive) and the GI50 [15] was 173 µM (inactive).
`Oc1cc(-n2cccn2)c(O)cc1-n1cccn1` was tested, and the GI50 [1] was 23.6 µM (inactive), the GI50 [2] was 32.6 µM (inactive) and the GI50 [3] was > 100 µM (inactive). The GI50 [4] was 28.8 µM, the GI50 [5] was > 63.1 µM (inactive) and the GI50 [6] was 11.2 µM (inactive). For the same molecule, the GI50 [7] was > 85.7 µM (inactive), the GI50 [8] was 57.7 µM (inactive) and the GI50 [9] was 27 µM (inactive). The GI50 [18] was 19.1 µM (inactive), the GI50 [19] was 17.5 µM (inactive) and the GI50 [10] was 9.55 µM (inactive). The GI50 [16] was 62.5 µM (inactive), the GI50 [20] was 29.4 µM (inactive) and the GI50 [11] was 15.2 µM (inactive). The GI50 [12] was 62.1 µM (inactive), the GI50 [13] was > 100 µM (inactive) and the GI50 [14] was 12.6 µM (inactive). For the same molecule, the GI50 [17] was 32.1 µM (inactive) and the GI50 [15] was 23.8 µM (inactive).
